Test system: bile acid transport in the ileum and the fecal excretion of bile acids
Assay: ED200 excretion: fecal excretion of 14C-taurocholate in the rat after oral administration twice daily
Assay type: in vivo
Conditions: Rattus norvegicus, po, 24 h, twice daily for one day, male Wistar rats; dose which increases fecal excretion of 14C taurocholic acid to 200% of control; diastereomer mixture unless stated
Protocol: The biological testing of the compounds according to the invention was carried out by determination of the ED200 excretion. This testing investigates the action of the compounds according to the invention on the bile acid transport in the ileum and the fecal excretion of bile acids in the rat after oral administration twice daily. The diastereomer mixtures of the compounds were tested.
The following recipe was used for the formulation of an aqueous solution:
the substances were dissolved in adequate volumes of an aqueous solution comprising Solutol (=polyethylene glycol […] hydroxystearate; BASF, Ludwigshafen, Germany; Batch No. 1763), so that a final concentration of 5% of Solutol is present in the aqueous solution. The solutions/suspensions were administered orally in a dose of 5 ml/kg. 2) Experimental Conditions
Male Wistar rats (Kastengrund, Hoechst AG, weight range 250–350 g) were kept in groups of 6 animals each and received a standard feed mixture (Altromin, Lage, Germany) from 10 days before the start of treatment (day 1) with a reversed day/night rhythm (4.00–16.00 dark, 16.00–4.00 light). Three days before the start of the experiment (day 0), the animals were divided into groups of 4 animals each.
After intravenous or subcutaneous administration of 5 μCi of ^14C-taurocholate per rat (day 0), the vehicles or test substances were given at 7.00–8.00 and at 15.00–16.00 on the following day (day 1) (treatment for one day).
Stool samples for the analysis of C-taurocholate were taken every 24 hours directly after the administration of the morning dose. The feces were weighed, stored at −18° C. and later suspended in 100 ml of demineralized water and homogenized (Ultra Turrax, Janke & Kunkel, IKA-Werk). Aliquot parts (0.5 g) were weighed and combusted on combustion lids (Combusto Cones, Canberra Packard) in a combustion apparatus (Tri Carb® 307 combuster Canberra Packard GmbH, Frankfurt am Main, Germany). The resulting ^14CO2 was absorbed with Carbo-Sorb® (Canberra Packard). The following ^14C radioactivity measurements were determined after addition of the scintillator (Perma-Fluor complete scintillation cocktail No. 6013187, Packard) to the samples with the aid of liquid scintillation counting (LSC). The fecal excretion of ^14C-taurocholic acid was calculated as a cumulative and/or percentage residual radioactivity (see below).
The fecal excretion of ^14C-TCA was determined in combusted aliquot parts of the stool samples taken at 24-hour intervals, calculated as the “cumulative percentage” of the administered activity and expressed as a % of the residual activity (=remaining activity, i.e. administered activity minus the already excreted activity). For the calculation of the dose-response curves, the excretion of ^14C taurocholic acid was expressed as a percentage proportion of the corresponding values of the control group (treated with vehicle). The ED200, i.e. the dose which increases the fecal excretion of ^14C taurocholic acid to 200% of the control group, is calculated from a sigmoid or linear dose-response curve by interpolation. The calculated ED200 corresponds to a dose which doubles the fecal excretion of bile acids.

| Compound | ED (200% of control) |
| --- | --- |
| CCCC[C@]1(CC)CS(=O)(=O)c2ccc(N(C)C)cc2[C@@H](c2cccc(N)c2)[C@H]1O [Comparison Example 1, reference compound] | 0.8 mg/kg/day |
| CCCC[C@]1(CC)CS(=O)(=O)c2ccc(N(C)C)cc2[C@@H](c2cccc(NC(=O)CCCCBr)c2)[C@H]1O [Comparison Example 2, reference compound] | 1 mg/kg/day |
| CCCC[C@]1(CC)CS(=O)(=O)c2ccc(N(C)C)cc2[C@@H](c2cccc(NC(=O)CCCC[N+](CC)(CC)CC)c2)[C@H]1O [Comparison Example 3, reference compound] | 0.9 mg/kg/day |
| CCCC[C@]1(CC)CS(=O)(=O)c2ccc(N(C)C)cc2[C@@H](c2cccc(NC(=O)[C@H](O)[C@@H](O)[C@H](O)[C@H](O)CO)c2)[C@H]1O [Example 1] | 0.009 mg/kg/day |
| CCCC[C@]1(CC)CS(=O)(=O)c2ccc(N(C)C)cc2[C@@H](c2cccc(NC(=O)[C@H](OC(C)=O)[C@@H](OC(C)=O)[C@H](OC(C)=O)[C@@H](COC(C)=O)OC(C)=O)c2)[C@H]1O [Example 2] | 0.008 mg/kg/day |
| CCCCC1(CCCC)CS(=O)(=O)c2ccc(N(C)C)cc2[C@@H](c2cccc(NC(=O)[C@H](OC(C)=O)[C@@H](OC(C)=O)[C@H](OC(C)=O)[C@@H](COC(C)=O)OC(C)=O)c2)[C@H]1O [Example 6] | 0.04 mg/kg/day |
| CCCCC1(CCCC)CS(=O)(=O)c2ccc(N(C)C)cc2[C@@H](c2cccc(NC(=O)[C@H](O)[C@@H](O)[C@H](O)[C@H](O)CO)c2)[C@H]1O [Example 7] | 0.04 mg/kg/day |
| CCCC[C@]1(CC)CS(=O)(=O)c2ccc(N(C)C)cc2[C@@H](c2cccc(NC(=O)CCCCNC(=O)[C@H](OC(C)=O)[C@@H](OC(C)=O)[C@H](OC(C)=O)[C@@H](COC(C)=O)OC(C)=O)c2)[C@H]1O [Example 8] | 0.007 mg/kg/day |
| CCCC[C@]1(CC)CS(=O)(=O)c2ccc(N(C)C)cc2[C@@H](c2cccc(NC(=O)CCCCNC(=O)[C@H](O)[C@@H](O)[C@H](O)[C@H](O)CO)c2)[C@H]1O [Example 9] | 0.007 mg/kg/day |
| CCCC[C@]1(CC)CS(=O)(=O)c2ccc(N(C)C)cc2[C@@H](c2cccc(NC(=O)CCCCN(C[C@H](OC(C)=O)[C@@H](OC(C)=O)[C@H](OC(C)=O)[C@@H](COC(C)=O)OC(C)=O)C(C)=O)c2)[C@H]1O [Example 10] | 0.04 mg/kg/day |

Same assay, conditions: p.o., twice daily for one day, male Wistar rats; dose which increases fecal excretion of 14C taurocholic acid to 200% of control; diastereomer mixture unless stated

| Compound | ED200 excretion |
| --- | --- |
| CCCC[C@]1(CC)CS(=O)(=O)c2ccc(N(C)C)cc2[C@@H](c2cccc(NC(=O)CCCCNC[C@H](O)[C@@H](O)[C@H](O)[C@H](O)CO)c2)[C@H]1O [3 (pure structure 11a)] | 0.008 mg/kg/day |
| CCCC[C@]1(CC)CS(=O)(=O)c2ccc(N(C)C)cc2[C@@H](c2cccc(NC(=O)CCCCNC[C@H](O)[C@@H](O)[C@H](O)[C@H](O)CO)c2)[C@H]1O [Example 3] | 0.04 mg/kg/day |

— patent US7019023B2, “Benzothiepine 1, 1-dioxide derivatives, a process for their preparation, pharmaceuticals comprising these compounds, and their use” (Aventis Pharma Deutschland GmbH, priority 1998, dated 2006)
